# Reference: patent US20230092846A1, “COMBINATION FOR THE TREATMENT OF CANCER AND APPLICATION THEREOF” (EVERFRONT BIOTECH INC., priority 2020, published 2023)
# Like-named read-outs stand apart in the source and are kept apart here.
# Tests used:
# Panc02 cells = test: MTT cell viability analysis, single agents, Panc02; format: cell-based, mouse
# Procedure: (§1) In this example, the effects of the compound of the present invention and different anticancer medicaments on killing cancer cells were studied by MTT (Thiazolyl Blue tetrazolium bromide, 3-[4,5-dimethylthiahiazo-2-yl]-[…] bromide) cell viability analysis.
# (§2) Thereafter, each of the aforesaid cell lines was cultured with cell medium containing gemcitabine, cisplatin, 5-fluorouracil, irinotecan, oxaliplatin, paclitaxel, (Z)-n-butylidenephthalide, (E)-n-butylidenephthalide, 2-pentanolybenzoic acid, sodium 2-pentanoylbenzoate, and butylphthalide, for 24 hours, 48 hours and 72 hours, respectively.
# Mia-PaCa2 cells = test: MTT cell viability analysis, single agents, Mia-PaCa2; format: cell-based, human
# Procedure: as §1, §2
# PANC-1 cells = test: MTT cell viability analysis, single agents, PANC-1; format: cell-based, human
# Procedure: as §1, §2
# AsPC-1 cells = test: MTT cell viability analysis, single agents, AsPC-1; format: cell-based, human
# Procedure: as §1, §2
# A549 cell = test: MTT cell viability analysis, single agents, A549; format: cell-based; details: cultured 24, 48 and 72 hours (time of IC50 not given)
# Procedure: as §1
# (§3) Thereafter, each of the aforesaid cell lines were cultured with cell medium containing 5-fluorouracil, (Z)-n-butylidenephthalide, and 2-pentanolybenzoic acid for 24 hours, 48 hours and 72 hours.
# CD44ICD protein = test: Western Blotting of treated Panc02 cells, CD44ICD; format: cell-based, mouse; details: FIG. 1
# Procedure: (§4) The Panc02 cells (pancreatic cancer cell line) were cultured with 37.5 and 75 μg/ml of (Z)-n-butylidenephthalide for 6 hours (a portion of cells were harvested after culturing for 3 hours), respectively. Thereafter, proteins of the cells were extracted, and the expressions of CD44 intracellular domain (CD44ICD) protein and PD-L1 protein in the cancer cells treated with (Z)-n-butylidenephthalide were measured by Western Blotting. Furthermore, the expression of GAPDH protein was measured as an internal control.
# [1] = test system: Panc02 cells pancreatic tumor; test: Survival of mice with orthotopic Panc02 pancreatic cancer; format: in vivo, C57BL/6J mouse; details: for Fold (as compared to Ctl. group): survival
# Procedure: (§5) According to the requirements of Institutional Animal Care and Use Committee (IACUC) of Dong Hwa University, C57BL/6J mice were feed in the experimental animal center of Dong Hwa University until 8 to 10 weeks old. Then, the stably constructed Panc02 cells transfected by Luc-eGFP were in-situ injected into the mice pancreases (1×10^6 cells/0.02 ml/mouse). Thereafter, the tumor sizes of mice pancreases were analyzed through the animal imaging results, and the mice were equally divided into nine group depending on their tumor sizes and treated by the following conditions for three to four weeks:
# (1) “Control (Ctl.)” group (5 mice): untreated, only orally administering vehicle (containing none of the compound of the present invention and other anticancer medicaments) every day.
# (2) “LD” group (5 mice): orally administering a low dose (12.5 mg/kg body weight) of (Z)-n-butylidenephthalide every day.
# (3) “HD” group (5 mice): orally administering a high dose (25 mg/kg body weight) of (Z)-n-butylidenephthalide every day.
# (4) “Gem” group (5 mice): intraperitoneally injecting 100 mg/kg body weight of gemcitabine (GEM) per three days.
# (5) “LD+Gem” group (5 mice): orally administering 12.5 mg/kg body weight of (Z)-n-butylidenephthalide every day, and intraperitoneally injecting 50 mg/kg body weight of gemcitabine (GEM) per three days.
# (6) “TS-1” group (5 mice): after orally administering 100 mg/kg body weight of TS-1 every day for five continuous days, stopping the oral administration of TS-1 for two days.
# According to the method of Example 4-1, the pancreatic cancer mice were established and the survivals of mice in each group were observed and recorded every day. The results are shown in Table 15 and FIG. 5A to FIG. 5D.
# HT-29 cell = test: MTT cell viability analysis, single agents, HT-29; format: cell-based; details: cultured 24, 48 and 72 hours (time of IC50 not given)
# Procedure: as §1, §3
# HepG2 cell = test: MTT cell viability analysis, single agents, HepG2; format: cell-based; details: cultured 24, 48 and 72 hours (time of IC50 not given)
# Procedure: as §1, §3
# DBTRG-05MG cell = test: MTT cell viability analysis, single agents, DBTRG-05MG; format: cell-based; details: cultured 24, 48 and 72 hours (time of IC50 not given)
# Procedure: as §1, §3
# PD-L1 protein [2] = test: Western Blotting of treated Panc02 cells, PD-L1; format: cell-based, mouse; details: 37.5 and 75 μg/ml, 3 and 6 hours, FIG. 1
# Procedure: as §4
# PD-L1 protein [3] = test: Western Blotting of pancreatic tumor tissue, PD-L1; format: in vivo, C57BL/6J mouse; details: FIG. 6, group regimens
# Procedure: as §5
# (§6) After accomplishing the observations of Examples 4-2 to 4-3, the mice in each group were sacrificed and the tissues of pancreatic tumor thereof were collected to extracting proteins. Then, the expressions of CD44 protein, CD44ICD protein, PD-1 protein, PD-L1 protein, p-Akt protein, and Akt protein in the protein sample of each group were detected by Western Blotting. Furthermore, the expression of GAPDH protein serves as an internal control.
# [4] = test system: Panc02 cells pancreatic tumor; test: Orthotopic Panc02 pancreatic tumor, tumor size by T2-weighted MRI; format: in vivo, C57BL/6J mouse; details: fifteenth day, 14 days of treatment; group regimens; FIG. 3
# Procedure: as §5
# (1) “Control (Ctl.)” group (5 mice): untreated, only orally administering vehicle (containing none of the compound of the present invention and other anticancer medicaments) every day. […]
# The stably constructed Panc02 cells transfected by Luc-eGFP were in-situ injected into the mice of each group of Example 4-1, and after determining the growth of in-situ pancreatic tumor, the medicament treatments were conducted for 14 days (i.e., the fifteenth day). In this duration, the pancreatic tumors of mice in each group were analyzed and observed by T2-weighted MRI and taken pictures for records. The tumor (a portion circled by a dotted line) sizes of mice of each group in FIG. 2 were analyzed by amide software.
# PD-1 protein = test: Western Blotting of pancreatic tumor tissue, PD-1; format: in vivo, C57BL/6J mouse; details: FIG. 6, group regimens
# Procedure: as §5, §6
# [5] = Mus musculus, MTT, cultured 24, 48 and 72 hours (time of IC50 not given), read-out: IC50
# [6] = Homo sapiens, MIA PaCa-2, Mia-PaCa2, MTT, cultured 24, 48 and 72 hours (time of IC50 not given), read-out: IC50
# [7] = Homo sapiens, MTT, cultured 24, 48 and 72 hours (time of IC50 not given), read-out: IC50
# [8] = Homo sapiens, ASPC1, AsPC-1, MTT, cultured 24, 48 and 72 hours (time of IC50 not given), read-out: IC50
# [9] = HD group: 25 mg/kg orally every day
# [10] = LD group: 12.5 mg/kg orally every day
# [11] = Gem group: 100 mg/kg intraperitoneally per three days
# [12] = MTT, cultured 24, 48 and 72 hours (time of IC50 not given)
# [13] = Mia-PaCa2, MTT, cultured 24, 48 and 72 hours (time of IC50 not given)
# [14] = AsPC-1, MTT, cultured 24, 48 and 72 hours (time of IC50 not given)
compound,measurement,setting,value
"CCCCC(=O)c1ccccc1C(=O)[O-].[Na+] [sodium 2-pentanoylbenzoate, Sodium 2-pentanoylbenzoate]",IC50,Panc02 cells; [5],750 ± 28.7 µg/mL
same,IC50,Mia-PaCa2 cells; [6],469 ± 18.6 µg/mL
same,IC50,PANC-1 cells; [7],687 ± 27.1 µg/mL
same,IC50,AsPC-1 cells; [8],624 ± 49.6 µg/mL
CCC/C=C1\OC(=O)c2ccccc21 [(Z)-n-butylidenephthalide],IC50,"A549 cell; Homo sapiens, read-out: IC50",63.6 ± 0.06 µg/mL
same,expression of CD44ICD protein,"CD44ICD protein; 37.5 and 75 μg/ml, 3 and 6 hours",decreased as the concentration of (Z)-n-butylidenephthalide was increased
same,expression of CD44ICD protein at 6 hours,CD44ICD protein; 6 hours,completely inhibited
same,IC50,Panc02 cells; Mus musculus,32.9 ± 2.33 µg/mL
same,Average of overall survival,[1]; [9],27.2 ± 0.533 days
same,Median of overall survival,[1]; [9],27 days
same,Average of overall survival,[1]; [10],30.6 ± 2.205 days
same,Median of overall survival,[1]; [10],30 days
same,survival days compared to Control group and TS-1 group,[1]; [10],more than that of “Control” group
same,Fold (as compared to Ctl. group),[1]; [9],1.6
same,Fold (as compared to Ctl. group),[1]; [10],1.8
same,IC50,"Mia-PaCa2 cells; Homo sapiens, MIA PaCa-2",55.9 ± 1.35 µg/mL
same,IC50,"HT-29 cell; Homo sapiens, read-out: IC50",52.9 ± 0.01 µg/mL
same,IC50,PANC-1 cells; Homo sapiens,41.2 ± 2.81 µg/mL
same,IC50,"HepG2 cell; Homo sapiens, read-out: IC50",81.1 ± 0.02 µg/mL
same,IC50,"AsPC-1 cells; Homo sapiens, ASPC1",83.3 ± 2.56 µg/mL
same,IC50,"DBTRG-05MG cell; Homo sapiens, read-out: IC50",133 µg/mL
same,expression of PD-L1 protein,PD-L1 protein [2],decreased as the concentration of (Z)-n-butylidenephthalide was increased
"CCc1c2c(nc3ccc(OC(=O)N4CCC(N5CCCCC5)CC4)cc13)-c1cc3c(c(=O)n1C2)COC(=O)[C@]3(O)CC [irinotecan, Irinotecan]",IC50,Panc02 cells; [5],69.5 ± 1.01 µg/mL
same,IC50,Mia-PaCa2 cells; [6],21.7 ± 0.82 µg/mL
same,IC50,PANC-1 cells; [7],38.5 ± 1.08 µg/mL
same,IC50,AsPC-1 cells; [8],54.4 ± 2.13 µg/mL
"O=c1[nH]cc(F)c(=O)[nH]1 [5-fluorouracil, reference compound]",IC50,"A549 cell; Homo sapiens, read-out: IC50",8.55 ± 0.22 µg/mL
same,IC50,Panc02 cells; [5],0.0673 µg/mL
same,IC50,Mia-PaCa2 cells; [6],4.9 ± 0.27 µg/mL
same,IC50,"HT-29 cell; Homo sapiens, read-out: IC50",20.8 ± 0.91 µg/mL
same,IC50,PANC-1 cells; [7],8.45 ± 0.35 µg/mL
same,IC50,"HepG2 cell; Homo sapiens, read-out: IC50",4.44 ± 0.25 µg/mL
same,IC50,AsPC-1 cells; [8],25.4 ± 3.91 µg/mL
same,IC50,"DBTRG-05MG cell; Homo sapiens, read-out: IC50",55.5 ± 6.1 µg/mL
"CC(=O)O[C@H]1C(=O)[C@@]2(C)[C@H]([C@H](OC(=O)c3ccccc3)[C@]3(O)C[C@H](OC(=O)[C@H](O)[C@@H](NC(=O)c4ccccc4)c4ccccc4)C(C)=C1C3(C)C)[C@]1(OC(C)=O)CO[C@@H]1C[C@@H]2O [paclitaxel, Paclitaxel]",IC50,Panc02 cells; [5],0.0124 µg/mL
same,IC50,Mia-PaCa2 cells; [6],0.00458 µg/mL
same,IC50,PANC-1 cells; [7],0.0196 µg/mL
same,IC50,AsPC-1 cells; [8],0.058 µg/mL
"Nc1ccn([C@@H]2O[C@H](CO)[C@@H](O)C2(F)F)c(=O)n1 [gemcitabine, Gemcitabine]",expression of PD-L1 protein in pancreatic tumor tissue,PD-L1 protein [3],more than that of the untreated “Control” group
same,IC50,Panc02 cells; [5],0.00377 µg/mL
same,Average of overall survival,[1]; [11],31.7 ± 1.023 days
same,Median of overall survival,[1]; [11],30 days
same,Fold (as compared to Ctl. group),[1]; [11],1.8
same,IC50,Mia-PaCa2 cells; [6],0.85 ± 0.36 µg/mL
same,tumor size (T2-weighted MRI),[4],bigger than that of untreated “Control” group
same,expression of PD-1 protein in pancreatic tumor tissue,PD-1 protein,more than that of the untreated “Control” group
same,IC50,PANC-1 cells; [7],1.53 ± 0.3 µg/mL
same,IC50,AsPC-1 cells; [8],6.56 ± 0.82 µg/mL
"O=C1[O][Pt]2([NH][C@@H]3CCCC[C@H]3[NH]2)[O]C1=O [oxaliplatin, Oxaliplatin]",IC50,Panc02 cells; [12],8.43 ± 0.83 µg/mL
same,IC50,Mia-PaCa2 cells; [13],21.81 ± 1.60 µg/mL
same,IC50,PANC-1 cells; [12],18.79 ± 1.35 µg/mL
same,IC50,AsPC-1 cells; [14],42.60 ± 7.61 µg/mL
"N.N.[Cl][Pt][Cl] [cisplatin, Cisplatin]",IC50,Panc02 cells; [12],53.36 ± 1.74 µg/mL
same,IC50,Mia-PaCa2 cells; [13],32.86 ± 1.08 µg/mL
same,IC50,PANC-1 cells; [12],35.87 ± 1.23 µg/mL
same,IC50,AsPC-1 cells; [14],21.56 ± 1.05 µg/mL
2-pentanolybenzoic acid,IC50,A549 cell,795.5 ± 0.02 µg/mL
same,IC50,Panc02 cells; [12],769.9 ± 15.13 µg/mL
same,IC50,Mia-PaCa2 cells; [13],693.5 ± 19.57 µg/mL
same,IC50,HT-29 cell,443.8 ± 0.04 µg/mL
same,IC50,PANC-1 cells; [12],980.5 ± 22.64 µg/mL
same,IC50,HepG2 cell,1141.5 ± 0.01 µg/mL
same,IC50,AsPC-1 cells; [14],490.2 ± 19.69 µg/mL
same,IC50,DBTRG-05MG cell,392.8 ± 0.01 µg/mL
"CCCCC1OC(=O)c2ccccc21 (centres unmarked) [butylphthalide, Butylphthalide]",IC50,Mia-PaCa2 cells; [13],198.9 ± 7.69 µg/mL
same,IC50,PANC-1 cells; [12],>200 µg/mL
same,IC50,AsPC-1 cells; [14],>300 µg/mL
CCC/C=C1/OC(=O)c2ccccc21 [(E)-n-butylidenephthalide],IC50,Panc02 cells; Mus musculus,514 ± 9.21 µg/mL
same,IC50,"Mia-PaCa2 cells; Homo sapiens, MIA PaCa-2",629 ± 16.5 µg/mL
same,IC50,PANC-1 cells; Homo sapiens,779 ± 26.9 µg/mL
same,IC50,"AsPC-1 cells; Homo sapiens, ASPC1",131 ± 43.3 µg/mL
